Among the data in PubChem BioAssay (NCI) are GI50 and TGI values, retold here.

Structures are written as SMILES.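 Five concentrations, 48 hours, 96-well plates. GI50 marks 50% less growth. TGI is the concentration that stops growth completely.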 A value given as a limit tells only on which side of the number the result lay.

Assay in all cases: NCI-60 cell line screen, 48 h
The subject of experiment [1] is SN12C renal.
For experiment [2], the system named is PC-3 prostate.
Experiment [3] relates to K-562 leukemia.
The test system of experiment [4] is SF-295 CNS.
For experiment [5], the system named is HCT-15 colon.
Experiment [6] relates to IGROV1 ovarian.
Experiment [7] deals with SNB-19 CNS.
Experiment [8] concerns HCC-2998 colon.
Experiment [9] deals with RPMI-8226 leukemia.
The subject of experiment [10] is LOX IMVI melanoma.

Take `C[n+]1c(-c2ccc(/C=N/NC(=O)c3ccc(C(=O)N/N=C/c4ccc(-c5cn6ccccc6[n+]5C)cc4)cc3)cc2)cn2ccccc21`: the GI50 is 213 µM in experiment [1]; 169 µM in [2]; 132 µM in [3]; 290 µM in experiment [4]; above 1000 µM in experiment [5]; above 1000 µM in [6]. Moreover, the GI50 in experiment [7] is 248 µM; in experiment [8], 577 µM; in experiment [9], 121 µM; in [10] it was 846 µM. In addition, the TGI in experiment [1] is 493 µM; in experiment [2] it was 306 µM; in experiment [3], 259 µM; in experiment [4], 944 µM; in experiment [5] it was above 1000 µM; in [6], above 1000 µM. Further, the TGI in experiment [7] is 517 µM; in experiment [8], above 1000 µM; in [9], 306 µM; in experiment [10], above 1000 µM.

As for `N=C(N)c1ccc(NCCOCCNc2ccc(C(=N)N)cc2)cc1`, the GI50 was 4.28 µM in experiment [1]; 50.7 µM in experiment [2]; 21.3 µM in [3]; 43.3 µM in experiment [4]; 30.2 µM in experiment [5]; 60.5 µM in experiment [6]. Also, the GI50 was 27.3 µM in [7], 41.9 µM in experiment [8], 22 µM in experiment [9] and above 100 µM in [10]. Also, the TGI in experiment [1], in [2], in experiment [3], in [4], in experiment [5] and in [6] was above 100 µM in each case. The TGI in experiment [7], in [8], in [9] and in experiment [10] was above 100 µM each time.

On to `COC(=O)C(CBr)CBr`, for which the TGI in experiment [1] was 9.28 µM; in experiment [2] it was 23 µM; in experiment [3], 4.29 µM; in experiment [4], 31.1 µM; in experiment [5], 3.75 µM; in experiment [6], 25.5 µM. Also, the TGI in [7] turned out to be 13.3 µM; in [8] it was 10.9 µM; in experiment [9] it was 3.97 µM; in experiment [10], 7.75 µM.

Consider `CCC(=O)Nc1ccccc1C#C/C=C\C#Cc1ccccc1C(F)(F)F`, for which the GI50 in experiment [1] is 2.22 µM; in [2], 4.08 µM; in experiment [3], 2.29 µM; in experiment [4], 1 µM; in experiment [5], 3.9 µM; in [6], 3.39 µM. In addition, the GI50 in experiment [7] is 5.52 µM; in experiment [8] it was 4.19 µM; in experiment [9], 4.25 µM; in experiment [10] it was 5.14 µM. For the same compound, the TGI in experiment [1] was above 50 µM; in [2], above 50 µM; in [3] it was above 50 µM; in experiment [4], 5.34 µM; in experiment [5], above 50 µM; in experiment [6], above 18.9 µM. For the same compound, the TGI is above 50 µM in experiment [7], 14.9 µM in [8], above 50 µM in experiment [9] and above 50 µM in [10].
